Holding throughout (type): in vivo
Experiment [1] concerns 3rd-instar larvae of Hyphantria cunea. In words: Joint toxicity of I-72 + organophosphorus insecticides, poplar leaf dipping, Example 20, Table 20. The settings on record: foliar, A = compound I-72, B = triazophos, poplar leaf dipping, 72 hours, read-out: LC50.
Excerpt: Test target: 3rd-instar larvae of Hyphantria cunea, a sensitive strain reared indoors.
Experimental method: first, fresh and tender poplar leaves were selected, cut into small sections of 5 cm, and dipped in the prepared pesticide solution for 10 s in the order from low dosage to high dosage according to the experimental design. After natural air-drying in the shade, they were placed in a 9-cm-diameter Petri dish with filter paper, and uniform and healthy test insects were introduced, with 10 insects for each treatment and 3 replicates for each treatment. In addition, a blank control was set up.
Experiment [2] relates to Thrips flavus Schrank nymphs. The experiment is described as follows: Joint toxicity of I-72 + flonicamid, Example 78, Table 78. To be noted: Thrips flavus; A = compound I-72, B = flonicamid; eggplant seedling spraying; 48 hours; read-out: LC50. The procedure:
Test target: Thrips flavus Schrank nymphs.
(§1) Preparation of the pesticide solution: according to different test requirements, the test samples were accurately weighed respectively with an electronic analytical balance. The technical pesticides were dissolved in acetone, and then diluted with 0.1% Tween 80 water into a series of pesticide solutions with a certain concentration gradient according to the experimental design dosage.
Experimental method: first, eggplant seedlings with Thrips flavus Schrank were selected, and the base number was counted. Then, uniform spraying was performed with the pesticide solution in the order from low to high doses according to the experimental design, with 2 mL for each seedling and 3 replicates for each treatment. In addition, a blank control was set up.
(§2) The treated test materials were placed in an observation room, and the temperature, humidity and illumination of the observation room could be adjusted as needed. The number of dead and live insects was investigated 48 hours later. […] Then, the co-toxicity coefficient of each ratio was calculated using the Sun Y-P method to evaluate the mixing effect (the same as in Example 1).

For experiment [3], the system named is adult Tetranychus cinnabarinus (Boisduval). The experiment is described as follows: Joint toxicity of I-72 + spirodiclofen, potted-seedling spraying, Example 25, Table 25. To be noted: Tetranychus cinnabarinus, A = compound I-72, B = spirodiclofen, 72 hours, read-out: LC50. The procedure:
Test target: adult Tetranychus cinnabarinus (Boisduval), a sensitive strain reared indoors.
as §1
Experimental method: the activity of the mixture against the adult Tetranychus cinnabarinus (Boisduval) was determined by adopting the potted-seedling spraying method. First, the adult Tetranychus cinnabarinus of uniform size were transferred onto the leaves of kidney bean seedlings at the stage when the first pair of true leaves was fully expanded. After the adult mites had stabilized, the base number was counted. Then, the uniform spraying was performed with the pesticide solution in the order from low to high dose according to the experimental design, with 1.5 mL for each seedling and 3 replicates for each treatment. […]
The treated test materials were placed in an observation room, and the temperature, humidity and illumination of the observation room could be adjusted as needed. […] Then, the co-toxicity coefficient of each ratio was calculated using the Sun Y-P method to evaluate the mixing effect, as in Example 1.

Experiment [4] relates to 2nd-instar larvae of Plutella xylostella. The experiment is described as follows: whole plant or invertebrate. The settings on record: Plutella xylostella; single pesticide, 0.5 mg/L; 72 hours; read-out: Measured mortality rate. On the procedure: Test target: 2nd-instar larvae of Plutella xylostella.
as §1
Experimental method: first, cabbage leaves were selected and dipped in the prepared pesticide solution for 10 s in the order from low dosage to high dosage according to the experimental design. After natural air-drying in the shade, they were placed in a 9-cm-diameter Petri dish with filter paper, and uniform and healthy test insects were introduced, with 10 insects for each treatment and 3 replicates for each treatment. In addition, a blank control (CK) was set up.
The treated test materials were placed in an observation room, and the temperature, humidity and illumination of the observation room could be adjusted as needed. The number of dead and alive insects was investigated 72 hours later, and the corrected mortality rate was calculated using the Abbott's formula.
The synergism of the mixture was evaluated by the Bliss method. According to the concept of independent joint action he proposed, Bliss believes that the theoretical mortality rate P when insecticides are used in combination can be calculated by the following formula: […]
Pm is the measured mortality rate (%) of the target when the first active ingredient is at a concentration of m; and Pn is the measured mortality rate (%) of the target when the second active ingredient is used at a concentration of n.
If the actual mortality rate of the target after the two active ingredients are mixed at a certain concentration is greater than theoretical mortality rate P, it is determined that the two active ingredients have a synergistic effect when used in combination at the set concentration, and otherwise, they have an antagonistic effect.

Experiment [5] relates to Aphis citricola van der Goot nymphs. The experiment is described as follows: Joint toxicity of I-72 + nicotine, Example 72, Table 72. The settings on record: A = compound I-72, B = nicotine, apple leaf spraying, 48 hours. The procedure: Test target: Aphis citricola van der Goot nymphs.
as §1
Experimental method: first, apple leaves with uniform and consistent Aphis citricola van der Goot were selected, with about 30-40 insects on each leaf. Then, they were evenly sprayed with the pesticide solution in the order from low dosage to high dosage according to the experimental design, with 1.5 mL for each leaf and 3 replicates for each treatment. In addition, a blank control was set up.
as §2

Experiment [6] deals with 2nd-instar larvae of Spodoptera exigua Hübner. In words: whole plant or invertebrate. The settings on record: Spodoptera exigua, foliar; A = compound I-72, B = tetrachlorantraniliprole; cabbage leaf dipping; 72 hours; read-out: LC50. On the procedure: Test target: 2nd-instar larvae of Spodoptera exigua Hübner.
as §1
Experimental method: first, cabbage leaves were selected and dipped in the prepared pesticide solution for 10 s in the order from low dosage to high dosage according to the experimental design. After natural air-drying in the shade, they were placed in a 9-cm-diameter Petri dish with filter paper, and uniform and healthy test insects were introduced, with 10 insects for each treatment and 3 replicates for each treatment. In addition, a blank control was set up.
The treated test materials were placed in an observation room, and the temperature, humidity and illumination of the observation room could be adjusted as needed. The number of dead and live insects was investigated 72 hours later.

Experiment [7] deals with Aphis gossypii Glover nymphs. In words: Joint toxicity of I-72 + flonicamid, Example 74, Table 74. To be noted: Aphis gossypii; A = compound I-72, B = flonicamid; cotton leaf spraying; 48 hours; read-out: LC50. On the procedure:
Test target: Aphis gossypii Glover nymphs, a sensitive strain reared indoors.
as §1
Experimental method: first, cotton leaves with uniform and consistent Aphis gossypii were selected, with about 30-40 insects on each leaf. Then, they were evenly sprayed with the pesticide solution in the order from low dosage to high dosage according to the experimental design, with 1.5 mL for each leaf and 3 replicates for each treatment. In addition, a blank control was set up.
as §2

The subject of experiment [8] is Lipaphis erysimi (Kaltenbach). The experiment is described as follows: Joint toxicity of I-72 + pyrethrin, Example 47, Table 47. To be noted: Lipaphis erysimi; A = compound I-72, B = pyrethrin; cabbage leaf spraying; 48 hours; read-out: LC50. On the procedure:
Test target: Lipaphis erysimi (Kaltenbach).
as §1
Experimental method: first, cabbage leaves with uniform and consistent Lipaphis erysimi (Kaltenbach) were selected, with about 30-40 insects on each leaf. Then, they were evenly sprayed with the pesticide solution in the order from low dosage to high dosage according to the experimental design, with 1.5 mL of the solution for each leaf and 3 replicates for each treatment. In addition, a blank control was set up.
as §2

In brackets after ≈: the same amount, converted by molar mass.

The term LC50 denotes the concentration lethal to half of the exposed cells or organisms. One may read the mortality as the share of the test organisms that died. Consider `CN(C(=O)c1ccc2c(c1)OC(F)(F)O2)c1cccc(C(=O)Nc2c(Br)cc(C(F)(C(F)(F)F)C(F)(F)F)cc2OC(F)F)c1F` [Compound I-72], for which the LC50 in experiment [1] is 5.74 µg/mL; in experiment [2] it was 1.9 µg/mL; in experiment [3] it was 35.1 µg/mL; in experiment [5], 3.06 µg/mL; in experiment [6] it was 0.252 µg/mL (≈ 0.339 µM); in experiment [7], 2.81 µg/mL. Besides, the LC50 in experiment [8] was found to be 10.4 µg/mL. In addition, in experiment [4], the mortality at 0.5 µg/mL stood at 80%.
